Results published in ChEMBL document CHEMBL1135541, “Synthesis, biological properties, and molecular modeling investigation of the first potent, selective, and water-soluble human A(3) adenosine receptor antagonist” (J Med Chem, 2002).

Assays:
[1] = target: Adenosine receptors; A1 & A3 (Homo sapiens) (UniProt P30542+P0DMS8); experiment: Selectivity as ratio of Ki for human adenosine A1 and A3 receptors; assay type: protein assay
[2] = target: Adenosine receptors; A2a & A3 (Homo sapiens) (UniProt P0DMS8+P29274); experiment: Selectivity as ratio of Ki for human adenosine A2A and A3 receptors; assay type: protein assay
[3] = target: Adenosine receptors; A2b & A3 (Homo sapiens) (UniProt P29275+P0DMS8); experiment: Selectivity as ratio of Ki for human A2b and A3 receptors; assay type: protein assay
Adenosine receptor A1 = target: T1, Adenosine receptor A1 (Rattus norvegicus, UniProt P25099); experiment: Binding affinity against rat adenosine A1 receptor […]; assay type: cell-based
T1 sequence (P25099 whole entry): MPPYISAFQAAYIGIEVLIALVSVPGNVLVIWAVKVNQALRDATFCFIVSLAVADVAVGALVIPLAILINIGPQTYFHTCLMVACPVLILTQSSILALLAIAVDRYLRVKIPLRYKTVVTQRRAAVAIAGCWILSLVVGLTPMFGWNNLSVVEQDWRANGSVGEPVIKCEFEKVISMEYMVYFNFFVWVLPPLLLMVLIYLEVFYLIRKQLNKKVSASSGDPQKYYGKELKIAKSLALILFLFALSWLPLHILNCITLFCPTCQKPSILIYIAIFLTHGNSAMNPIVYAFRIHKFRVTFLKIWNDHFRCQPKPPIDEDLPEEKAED

Adenosine receptor A3 [4] = target: T2, Adenosine receptor A3 (Rattus norvegicus, UniProt P28647); experiment: Binding affinity against rat adenosine A3 receptor in RBL-2H3 cells; assay type: cell-based
T2 sequence (P28647 whole entry): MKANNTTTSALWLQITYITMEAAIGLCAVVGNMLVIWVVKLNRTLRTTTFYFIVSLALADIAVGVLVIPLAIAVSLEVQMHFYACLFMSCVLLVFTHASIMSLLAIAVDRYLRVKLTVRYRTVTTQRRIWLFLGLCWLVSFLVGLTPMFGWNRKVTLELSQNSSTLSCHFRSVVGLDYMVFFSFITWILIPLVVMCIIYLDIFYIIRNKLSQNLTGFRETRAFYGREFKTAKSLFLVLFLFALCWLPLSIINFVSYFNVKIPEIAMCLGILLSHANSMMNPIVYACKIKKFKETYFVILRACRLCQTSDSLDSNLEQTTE

Adenosine receptor A2a = Adenosine receptor A2a (Rattus norvegicus, UniProt P30543); experiment: Binding affinity against rat adenosine A2A receptor […]; assay type: cell-based
[5] = The hydrophobicity was measured in reverse-phase TLC experiments and reported as Rm values; Rm = log(1/Rf - 1)
[6] = target: T3, Adenosine receptor A3 (Rattus norvegicus) (UniProt P28647); details: RBL-2H3, 1 uM
T3 sequence (whole entry): T2 sequence (P28647 whole entry)
Description: Inhibitory activity against binding of [125I]I-AB-MECA to Adenosine A3 receptor in membranes of rat basophilic RBL-2H3 cells at 1 uM

[7] = target: T4, Adenosine receptor A3 (Homo sapiens) (UniProt P0DMS8); details: CHO
T4 sequence (whole entry): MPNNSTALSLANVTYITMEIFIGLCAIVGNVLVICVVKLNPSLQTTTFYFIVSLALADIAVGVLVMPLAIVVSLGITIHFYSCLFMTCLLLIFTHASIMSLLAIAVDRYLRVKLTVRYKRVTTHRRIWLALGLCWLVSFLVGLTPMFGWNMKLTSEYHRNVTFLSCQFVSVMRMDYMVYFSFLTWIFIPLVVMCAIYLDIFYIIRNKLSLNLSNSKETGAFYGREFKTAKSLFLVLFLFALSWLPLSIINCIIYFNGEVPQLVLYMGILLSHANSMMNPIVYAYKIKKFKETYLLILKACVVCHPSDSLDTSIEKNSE
Description: Antagonistic activity against Cl-IB-MECA26-induced inhibition of forskolin-stimulated cAMP in CHO cells expressing human Adenosine A3 receptor

Adenosine receptor A3 [8] = target: T5, Adenosine receptor A3 (Homo sapiens, UniProt P0DMS8); experiment: Inhibitory activity against Human Adenosine A3 receptor expressed in CHO cells; assay type: cell-based
T5 sequence (P0DMS8 whole entry): T4 sequence (whole entry)

Adenosine receptors; A2a & A3 (Homo sapiens), sequence (P29274 whole entry, looked up, one chain of several): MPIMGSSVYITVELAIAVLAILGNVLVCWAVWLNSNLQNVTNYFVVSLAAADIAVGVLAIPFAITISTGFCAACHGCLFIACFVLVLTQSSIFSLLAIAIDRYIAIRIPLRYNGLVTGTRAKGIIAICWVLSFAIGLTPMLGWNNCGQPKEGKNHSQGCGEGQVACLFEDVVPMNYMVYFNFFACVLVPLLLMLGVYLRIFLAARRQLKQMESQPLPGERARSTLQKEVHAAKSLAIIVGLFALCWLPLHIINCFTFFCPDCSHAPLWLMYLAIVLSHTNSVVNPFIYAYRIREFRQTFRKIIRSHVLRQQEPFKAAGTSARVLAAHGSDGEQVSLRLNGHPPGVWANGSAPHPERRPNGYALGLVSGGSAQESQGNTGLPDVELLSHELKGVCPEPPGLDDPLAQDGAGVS
Adenosine receptor A2a, sequence (P30543 whole entry): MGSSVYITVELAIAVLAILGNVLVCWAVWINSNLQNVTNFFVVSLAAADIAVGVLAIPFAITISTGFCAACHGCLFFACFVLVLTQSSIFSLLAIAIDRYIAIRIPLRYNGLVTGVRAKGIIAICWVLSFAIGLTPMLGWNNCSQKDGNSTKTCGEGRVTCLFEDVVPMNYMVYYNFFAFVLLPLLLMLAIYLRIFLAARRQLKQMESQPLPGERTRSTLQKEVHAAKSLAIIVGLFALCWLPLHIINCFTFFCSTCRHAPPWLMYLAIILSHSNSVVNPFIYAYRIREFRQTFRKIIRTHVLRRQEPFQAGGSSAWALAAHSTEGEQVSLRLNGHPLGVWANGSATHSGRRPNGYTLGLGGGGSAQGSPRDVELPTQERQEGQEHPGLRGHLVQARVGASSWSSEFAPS

Selectivity [1]	Selectivity [2]	Selectivity [3]	Ki (Adenosine receptor A1)	Ki (Adenosine receptor A3 [4])	Ki (Adenosine receptor A2a)	Rm [5]	inhibition [6]	K B [7]	IC50 (Adenosine receptor A3 [8])	SMILES
> 400	24	> 400								Cn1cc2c(nc(NC(=O)Nc3ccc(S(=O)(=O)O)cc3)n3nc(-c4ccco4)nc23)n1
			226 nM	> 1000 nM	97.6 nM	3.06	35%	0.2 nM		Cn1cc2c(nc(NC(=O)Nc3ccncc3)n3nc(-c4ccco4)nc23)n1
3710	2380	1390							2.1 nM	Cn1cc2c(nc(NC(=O)Nc3ccccc3)n3nc(-c4ccco4)nc23)n1
